Laboratory results published in patent publication US8575091B1, “Amylin analogues and pharmaceutical compositions thereof” (Novo Nordisk A/S, priority 2012, dated 2013).
Numbered stars: 1 amine (or outer) side, 2 acyl side, 3 side chain; on linkers, the order of the positions; unused ones are H or OH. Bridge positions count the residues as written; N and C are the ends. Peptide text beside a SMILES is read from it. * marks the point of attachment. C20 diacid = O=C(O)CCCCCCCCCCCCCCCCCCC(=O)*; γGlu = O=C(O)[C@H](CCC(=O)[*:2])N[*:1]

What was measured:
[1] = molecular target: T1, human calcitonin receptor (Homo sapiens, UniProt P30988); assay: Assay (II)a functional assay, human calcitonin receptor (CRE luciferase, BHK cells);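 further: luminescence from a CRE-driven luciferase reporter, read by single photon counting after cells were exposed to test samples for 3 h at 37 °C under 5% CO2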; assay type: cell-based; details: read-out: hCTR funct. EC50
T1 construct: expressed in transfected cells
T1 sequence (P30988 25-474): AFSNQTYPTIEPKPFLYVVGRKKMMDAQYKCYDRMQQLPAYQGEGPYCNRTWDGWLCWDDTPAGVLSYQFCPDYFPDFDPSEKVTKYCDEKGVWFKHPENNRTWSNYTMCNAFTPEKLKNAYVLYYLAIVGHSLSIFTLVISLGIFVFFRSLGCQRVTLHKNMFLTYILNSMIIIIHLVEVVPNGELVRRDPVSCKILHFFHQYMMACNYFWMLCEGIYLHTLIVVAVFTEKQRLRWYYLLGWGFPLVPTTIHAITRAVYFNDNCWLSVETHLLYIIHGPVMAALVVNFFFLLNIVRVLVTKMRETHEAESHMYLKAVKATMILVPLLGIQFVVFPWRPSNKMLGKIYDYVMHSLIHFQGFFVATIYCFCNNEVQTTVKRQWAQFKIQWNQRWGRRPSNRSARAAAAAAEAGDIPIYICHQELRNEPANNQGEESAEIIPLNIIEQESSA

[2] = molecular target: T2, human amylin receptor (Homo sapiens, UniProt O60896+P30988); assay: Assay (V) binding to the human amylin receptor (SPA, 125I-rat amylin); details: for IC50: human amylin receptor membranes, SPA, read-out: hAmylin-R bind IC50
T2 construct: expressed in transfected cells
T2 sequence (P30988 25-474): T1 sequence (P30988 25-474)
T2 sequence (O60896 24-148 partner): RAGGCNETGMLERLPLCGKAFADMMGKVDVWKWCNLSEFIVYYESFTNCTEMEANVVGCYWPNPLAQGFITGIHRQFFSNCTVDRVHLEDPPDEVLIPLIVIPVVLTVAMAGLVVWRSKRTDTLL
Summary of the method: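 IC50, taken as receptor affinity, came from one-site binding competition analysis of scintillation proximity counts. Amylin 3(a)/CRE-luc cell membranes (35 ng/μL final) were mixed with SPA beads (0.05 mg/well) in 50 mM Hepes pH 7.4 containing CaCl2, MgCl2, 0.1% OA and 0.02% Tween20.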

[3] = molecular target: T1, human calcitonin receptor; assay: Assay (VII) binding to the human calcitonin receptor (SPA, 125I-Calcitonin); details: read-out: hCTR bind IC50;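 further: cell membranes coupled to SPA beads, competitive displacement read by scintillation counting, IC50 derived from a one-site competition fit as a measure of receptor affinity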
[4] = molecular target: T3, human amylin receptor (amylin 3(a) receptor: human calcitonin receptor + RAMP-3) (Homo sapiens, UniProt O60896+P30988); assay: Assay (II)a functional assay, human amylin receptor (CRE luciferase, BHK cells); assay type: cell-based; details: for EC50: functional assay, human amylin receptor, read-out: hAmylin-R funct. EC50
T3 construct: expressed in transfected cells
T3 sequence (P30988 25-474): T1 sequence (P30988 25-474)
T3 sequence (O60896 24-148 partner): T2 sequence (O60896 24-148 partner)

SMILES	EC50 [1] [nM]	IC50 [2] [nM]	IC50 [3] [nM]	EC50 [4] [nM]	Ratio hCT/hAmylin binding ([2]; human binding ratio, included for comparison)	Ratio hCT/hAmylin funct. ([4]; Table 6, human functional selectivity (hCTR EC50 / hAmylin-R EC50))
CC[C@H](C)[C@H](NC(=O)[C@H](C)NC(=O)CNC(=O)[C@H](Cc1ccccc1)NC(=O)[C@H](CC(N)=O)NC(=O)[C@@H]1CCCN1C(=O)[C@H](CO)NC(=O)[C@H](CO)NC(=O)[C@H](Cc1c[nH]cn1)NC(=O)[C@H](CCCNC(=N)N)NC(=O)[C@H](CC(C)C)NC(=O)[C@H](Cc1ccccc1)NC(=O)[C@H](CCC(=O)O)NC(=O)[C@H](C)NC(=O)[C@H](CC(C)C)NC(=O)[C@H](CCCNC(=N)N)NC(=O)[C@H](CCC(N)=O)NC(=O)[C@@H](NC(=O)[C@H](C)NC(=O)[C@@H]1CSSC[C@H](NC(=O)[C@H](CCCCN)NC(=O)CC[C@H](NC(=O)CC[C@H](NC(=O)CCCCCCCCCCCCCCCCCCC(=O)O)C(=O)O)C(=O)O)C(=O)N[C@@H](CC(N)=O)C(=O)N[C@@H]([C@@H](C)O)C(=O)N[C@@H](C)C(=O)N[C@@H]([C@@H](C)O)C(=O)N1)[C@@H](C)O)C(=O)N1CCC[C@H]1C(=O)N[C@@H](CO)C(=O)N[C@@H](CO)C(=O)N[C@H](C(=O)N[C@@H](CC(N)=O)C(=O)N[C@H](C(=O)NCC(=O)N[C@@H](CO)C(=O)N[C@@H](CC(N)=O)C(=O)N[C@H](C(=O)N1CCC[C@H]1C(N)=O)[C@@H](C)O)C(C)C)[C@@H](C)O [Example 14] ({C20 diacid-γGlu-γGlu}-KCNTATCATQRLAEFLRHSSPNFGAIPSSTNVGSNTP-NH2; disulfide 2-7)	0.238	0.196	0.432	0.146	2.2	1.6
CC[C@H](C)[C@H](NC(=O)[C@H](C)NC(=O)CNC(=O)[C@H](Cc1ccccc1)NC(=O)[C@H](CC(N)=O)NC(=O)[C@@H]1CCCN1C(=O)[C@H](CO)NC(=O)[C@H](CO)NC(=O)[C@H](Cc1c[nH]cn1)NC(=O)[C@H](CCCNC(=N)N)NC(=O)[C@H](CC(C)C)NC(=O)[C@H](Cc1ccccc1)NC(=O)[C@H](CCC(=O)O)NC(=O)[C@H](C)NC(=O)[C@H](CC(C)C)NC(=O)[C@H](CCCNC(=N)N)NC(=O)[C@H](CCC(N)=O)NC(=O)[C@@H](NC(=O)[C@H](C)NC(=O)[C@@H]1CSSC[C@H](NC(=O)[C@H](CCCCN)NC(=O)COCCOCCNC(=O)COCCOCCNC(=O)CC[C@H](NC(=O)CCCCCCCCCCCCCCCCCCC(=O)O)C(=O)O)C(=O)N[C@@H](CC(N)=O)C(=O)N[C@@H]([C@@H](C)O)C(=O)N[C@@H](C)C(=O)N[C@@H]([C@@H](C)O)C(=O)N1)[C@@H](C)O)C(=O)N1CCC[C@H]1C(=O)N[C@@H](CO)C(=O)N[C@@H](CO)C(=O)N[C@H](C(=O)N[C@@H](CC(N)=O)C(=O)N[C@H](C(=O)NCC(=O)N[C@@H](CO)C(=O)N[C@@H](CC(N)=O)C(=O)N[C@H](C(=O)N[C@@H](Cc1ccc(O)cc1)C(N)=O)[C@@H](C)O)C(C)C)[C@@H](C)O [Example 19]	5.32	0.556	20.4	0.307	–	–

Second part, the compound after the results:

EC50 [1] [nM]	IC50 [2] [nM]	IC50 [3] [nM]	EC50 [4] [nM]	Ratio hCT/hAmylin binding ([2]; human binding ratio, included for comparison)	Ratio hCT/hAmylin funct. ([4]; Table 6, human functional selectivity (hCTR EC50 / hAmylin-R EC50))	SMILES
1.09	1.04	24.3	0.028	–	–	CC[C@H](C)[C@H](NC(=O)[C@H](C)NC(=O)CNC(=O)[C@H](Cc1ccccc1)NC(=O)[C@H](CC(N)=O)NC(=O)[C@@H]1CCCN1C(=O)[C@H](CO)NC(=O)[C@H](CO)NC(=O)[C@H](Cc1c[nH]cn1)NC(=O)[C@H](CCCNC(=N)N)NC(=O)[C@H](CC(C)C)NC(=O)[C@H](Cc1ccccc1)NC(=O)[C@H](CC(N)=O)NC(=O)[C@H](C)NC(=O)[C@H](CC(C)C)NC(=O)[C@H](CCCNC(=N)N)NC(=O)[C@H](CCC(N)=O)NC(=O)[C@@H](NC(=O)[C@H](C)NC(=O)[C@@H]1CSSC[C@H](NC(=O)[C@@H](N)CCCCNC(=O)CC[C@H](NC(=O)CCCCCCCCCCCCC(=O)O)C(=O)O)C(=O)N[C@@H](CC(N)=O)C(=O)N[C@@H]([C@@H](C)O)C(=O)N[C@@H](C)C(=O)N[C@@H]([C@@H](C)O)C(=O)N1)[C@@H](C)O)C(=O)N1CCC[C@H]1C(=O)N[C@@H](CO)C(=O)N[C@@H](CO)C(=O)N[C@H](C(=O)N[C@@H](CC(N)=O)C(=O)N[C@H](C(=O)NCC(=O)N[C@@H](Cc1c[nH]cn1)C(=O)N[C@@H](CC(N)=O)C(=O)N[C@H](C(=O)N[C@@H](Cc1ccc(O)cc1)C(N)=O)[C@@H](C)O)C(C)C)[C@@H](C)O [Example 112]
1.68	0.919	21.7	0.134	–	–	CC[C@H](C)[C@H](NC(=O)[C@H](C)NC(=O)CNC(=O)[C@H](Cc1ccccc1)NC(=O)[C@H](CC(N)=O)NC(=O)[C@@H]1CCCN1C(=O)[C@H](CO)NC(=O)[C@H](CO)NC(=O)[C@H](Cc1c[nH]cn1)NC(=O)[C@H](CCCNC(=N)N)NC(=O)[C@H](CC(C)C)NC(=O)[C@H](Cc1ccccc1)NC(=O)[C@H](Cc1c[nH]cn1)NC(=O)[C@H](C)NC(=O)[C@H](CC(C)C)NC(=O)[C@H](CCCNC(=N)N)NC(=O)[C@H](CCC(N)=O)NC(=O)[C@@H](NC(=O)[C@H](C)NC(=O)[C@@H]1CSSC[C@H](NC(=O)[C@H](CCCCN)NC(=O)CC[C@H](NC(=O)CCCCCCCCCCCCCCCCCCC(=O)O)C(=O)O)C(=O)N[C@@H](CC(N)=O)C(=O)N[C@@H]([C@@H](C)O)C(=O)N[C@@H](C)C(=O)N[C@@H]([C@@H](C)O)C(=O)N1)[C@@H](C)O)C(=O)N1CCC[C@H]1C(=O)N[C@@H](CO)C(=O)N[C@@H](CO)C(=O)N[C@H](C(=O)N[C@@H](CC(N)=O)C(=O)N[C@H](C(=O)NCC(=O)N[C@@H](CO)C(=O)N[C@@H](CCC(=O)O)C(=O)N[C@H](C(=O)N[C@@H](Cc1ccc(O)cc1)C(N)=O)[C@@H](C)O)C(C)C)[C@@H](C)O [Example 30] ({C20 diacid-γGlu}-KCNTATCATQRLAHFLRHSSPNFGAIPSSTNVGSETY-NH2; disulfide 2-7)
5.36	0.695	31.4	0.351	–	–	CC[C@H](C)[C@H](NC(=O)[C@H](C)NC(=O)CNC(=O)[C@H](Cc1ccccc1)NC(=O)[C@H](CC(N)=O)NC(=O)[C@@H]1CCCN1C(=O)[C@H](CO)NC(=O)[C@H](CO)NC(=O)[C@H](Cc1c[nH]cn1)NC(=O)[C@H](CCCNC(=N)N)NC(=O)[C@H](CC(C)C)NC(=O)[C@H](Cc1ccccc1)NC(=O)[C@H](CC(N)=O)NC(=O)[C@H](C)NC(=O)[C@H](CC(C)C)NC(=O)[C@H](CCCNC(=N)N)NC(=O)[C@H](CCC(N)=O)NC(=O)[C@@H](NC(=O)[C@H](C)NC(=O)[C@@H]1CSSC[C@H](NC(=O)[C@@H](N)CCCCNC(=O)CC[C@H](NC(=O)CCCCCCCCCCCCCCCCCCC(=O)O)C(=O)O)C(=O)N[C@@H](CC(N)=O)C(=O)N[C@@H]([C@@H](C)O)C(=O)N[C@@H](C)C(=O)N[C@@H]([C@@H](C)O)C(=O)N1)[C@@H](C)O)C(=O)N1CCC[C@H]1C(=O)N[C@@H](CO)C(=O)N[C@@H](CO)C(=O)N[C@H](C(=O)N[C@@H](CC(N)=O)C(=O)N[C@H](C(=O)NCC(=O)N[C@@H](CO)C(=O)N[C@@H](Cc1c[nH]cn1)C(=O)N[C@H](C(=O)N[C@@H](Cc1ccc(O)cc1)C(N)=O)[C@@H](C)O)C(C)C)[C@@H](C)O [Example 60]
